Key:
Test in all cases: relative viability (nuclei count vs DMSO), 5 days (fraction); higher = more cells survive
[1] = compound: CC[C@@H](C)CNCC(=O)N1CCC2=C([C@@H]1COC3=CC=CC(=C3)C)C=CS2 [RU-SKI 43] + N=C(N)NC(=N)NCCc1ccccc1 [Phenformin] (partner 250 µM)
Method in brief: (§1)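 Relative viability was taken as the ratio of nuclei in treated wells to nuclei in vehicle wells. Lung cancer cell lines in 1536-well plates received compounds by pin tool one day after seeding, either one drug alone or a fixed anchor-drug dose plus five library-drug doses (not always all listed) in √10 steps. Nuclei were counted on 4× images after 5 days of treatment, and values are medians of duplicate plates.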

[2] = compound: CCc1c2c(nc3ccc(OC(=O)N4CCC(N5CCCCC5)CC4)cc13)-c1cc3c(c(=O)n1C2)COC(=O)[C@]3(O)CC [Irinotecan] + CCNC(=O)c1noc(-c2cc(C(C)C)c(O)cc2O)c1-c1ccc(CN2CCOCC2)cc1 [Luminespib] (partner 0.01 µM)
Method in brief: as §1

[3] = compound: CCc1c2c(nc3ccc(OC(=O)N4CCC(N5CCCCC5)CC4)cc13)-c1cc3c(c(=O)n1C2)COC(=O)[C@]3(O)CC [Irinotecan] + C[C@@H](Oc1cc(-c2cnn(C3CCNCC3)c2)cnc1N)c1c(Cl)ccc(F)c1Cl [Crizotinib] (partner 1 µM)
Method in brief: as §1

[4] = compound: Cn1cc(-c2cnc3ccc4ccc(CS(=O)(=O)NCc5ccccn5)cc4c(=O)c3c2)cn1 [MK-8033] + CS(=O)(=O)CCNCc1ccc(-c2ccc3ncnc(Nc4ccc(OCc5cccc(F)c5)c(Cl)c4)c3c2)o1 [Lapatinib] (partner 2 µM)
Method in brief: as §1

Cell Line: NCI-H1944
- relative viability ([1]; first compound 0.1 µM): 0.214
- relative viability ([1]; first compound 0.3162 µM): 0.21
- relative viability ([1]; first compound 1 µM): 0.225
- relative viability ([1]; first compound 3.162 µM): 0.213
- relative viability ([1]; first compound 10 µM): 0.177
- relative viability ([2]; first compound 0.6325 µM): 0.557
- relative viability ([2]; first compound 2 µM): 0.312
- relative viability ([2]; first compound 6.325 µM): 0.167
- relative viability ([2]; first compound 20 µM): 0.149
- relative viability ([3]; first compound 0.6325 µM): 0.561
- relative viability ([3]; first compound 2 µM): 0.323
- relative viability ([3]; first compound 6.325 µM): 0.231
- relative viability ([3]; first compound 20 µM): 0.254
- relative viability ([4]; first compound 0.02 µM): 0.931
- relative viability ([4]; first compound 0.2 µM): 0.808
- relative viability ([4]; first compound 0.6325 µM): 0.825
- relative viability ([4]; first compound 2 µM): 0.791

Cell Line: NCI-H1975
- relative viability ([1]; first compound 0.1 µM): 0.385
- relative viability ([1]; first compound 0.3162 µM): 0.468
- relative viability ([1]; first compound 1 µM): 0.444
- relative viability ([1]; first compound 3.162 µM): 0.422
- relative viability ([1]; first compound 10 µM): 0.404
- relative viability ([2]; first compound 0.6325 µM): 0.107
- relative viability ([2]; first compound 2 µM): 0.201
- relative viability ([2]; first compound 6.325 µM): 0.175
- relative viability ([2]; first compound 20 µM): 0.235
- relative viability ([3]; first compound 0.6325 µM): 0.914
- relative viability ([3]; first compound 2 µM): 1
- relative viability ([3]; first compound 6.325 µM): 0.401
- relative viability ([3]; first compound 20 µM): 0.329
- relative viability ([4]; first compound 0.02 µM): 0.829
- relative viability ([4]; first compound 0.06325 µM): 0.795
- relative viability ([4]; first compound 0.2 µM): 0.801
- relative viability ([4]; first compound 0.6325 µM): 0.844
- relative viability ([4]; first compound 2 µM): 0.826

Cell Line: NCI-H1993
- relative viability ([1]; first compound 0.1 µM): 0.526
- relative viability ([1]; first compound 0.3162 µM): 0.5
- relative viability ([1]; first compound 1 µM): 0.471
- relative viability ([1]; first compound 3.162 µM): 0.511
- relative viability ([1]; first compound 10 µM): 0.487
- relative viability ([2]; first compound 0.6325 µM): 0.784
- relative viability ([2]; first compound 2 µM): 0.745
- relative viability ([2]; first compound 6.325 µM): 0.667
- relative viability ([2]; first compound 20 µM): 1.58
- relative viability ([3]; first compound 0.6325 µM): 0.897
- relative viability ([3]; first compound 2 µM): 0.656
- relative viability ([3]; first compound 6.325 µM): 0.671
- relative viability ([3]; first compound 20 µM): 0.664
- relative viability ([4]; first compound 0.02 µM): 0.765
- relative viability ([4]; first compound 0.06325 µM): 0.677
- relative viability ([4]; first compound 0.2 µM): 0.7
- relative viability ([4]; first compound 0.6325 µM): 0.802
- relative viability ([4]; first compound 2 µM): 0.828

Cell Line: NCI-H2009
- relative viability ([1]; first compound 0.1 µM): 0.49
- relative viability ([1]; first compound 0.3162 µM): 0.514
- relative viability ([1]; first compound 1 µM): 0.519
- relative viability ([1]; first compound 3.162 µM): 0.474
- relative viability ([1]; first compound 10 µM): 0.424
- relative viability ([2]; first compound 0.6325 µM): 0.863
- relative viability ([2]; first compound 2 µM): 0.486
- relative viability ([2]; first compound 6.325 µM): 0.25
- relative viability ([2]; first compound 20 µM): 0.252
- relative viability ([3]; first compound 0.6325 µM): 0.912
- relative viability ([3]; first compound 2 µM): 0.857
- relative viability ([3]; first compound 6.325 µM): 0.233
- relative viability ([3]; first compound 20 µM): 0.224
- relative viability ([4]; first compound 0.02 µM): 0.959
- relative viability ([4]; first compound 0.06325 µM): 0.887
- relative viability ([4]; first compound 0.2 µM): 0.929
- relative viability ([4]; first compound 0.6325 µM): 1.13
- relative viability ([4]; first compound 2 µM): 0.973

Cell Line: NCI-H2023
- relative viability ([1]; first compound 0.1 µM): 0.421
- relative viability ([1]; first compound 0.3162 µM): 0.471
- relative viability ([1]; first compound 1 µM): 0.466
- relative viability ([1]; first compound 3.162 µM): 0.43
- relative viability ([1]; first compound 10 µM): 0.396
- relative viability ([2]; first compound 0.6325 µM): 0.467
- relative viability ([2]; first compound 2 µM): 0.256
- relative viability ([2]; first compound 6.325 µM): 0.127
- relative viability ([2]; first compound 20 µM): 0.0843
- relative viability ([3]; first compound 0.6325 µM): 0.676
- relative viability ([3]; first compound 2 µM): 0.532
- relative viability ([3]; first compound 6.325 µM): 0.205
- relative viability ([3]; first compound 20 µM): 0.0482
- relative viability ([4]; first compound 0.02 µM): 0.923
- relative viability ([4]; first compound 0.06325 µM): 0.701
- relative viability ([4]; first compound 0.2 µM): 0.624
- relative viability ([4]; first compound 0.6325 µM): 0.59
- relative viability ([4]; first compound 2 µM): 0.523

Cell Line: NCI-H2085
- relative viability ([1]; first compound 0.1 µM): 0.758
- relative viability ([1]; first compound 0.3162 µM): 0.652
- relative viability ([1]; first compound 1 µM): 0.709
- relative viability ([1]; first compound 3.162 µM): 0.698
- relative viability ([1]; first compound 10 µM): 0.631
- relative viability ([2]; first compound 0.6325 µM): 0.312
- relative viability ([2]; first compound 2 µM): 0.431
- relative viability ([2]; first compound 6.325 µM): 0.445
- relative viability ([2]; first compound 20 µM): 0.519
- relative viability ([3]; first compound 0.6325 µM): 0.845
- relative viability ([3]; first compound 2 µM): 0.622
- relative viability ([3]; first compound 6.325 µM): 0.511
- relative viability ([3]; first compound 20 µM): 0.537
- relative viability ([4]; first compound 0.02 µM): 0.746
- relative viability ([4]; first compound 0.06325 µM): 0.646
- relative viability ([4]; first compound 0.2 µM): 0.695
- relative viability ([4]; first compound 0.6325 µM): 0.743
- relative viability ([4]; first compound 2 µM): 0.806

Cell Line: NCI-H2087
- relative viability ([1]; first compound 0.1 µM): 0.46
- relative viability ([1]; first compound 0.3162 µM): 0.552
- relative viability ([1]; first compound 1 µM): 0.477
- relative viability ([1]; first compound 3.162 µM): 0.526
- relative viability ([1]; first compound 10 µM): 0.406
- relative viability ([2]; first compound 0.6325 µM): 0.158
- relative viability ([2]; first compound 2 µM): 0.183
- relative viability ([2]; first compound 6.325 µM): 0.2
- relative viability ([2]; first compound 20 µM): 0.261
- relative viability ([3]; first compound 0.6325 µM): 0.476
- relative viability ([3]; first compound 2 µM): 0.396
- relative viability ([3]; first compound 6.325 µM): 0.259
- relative viability ([3]; first compound 20 µM): 0.203
- relative viability ([4]; first compound 0.02 µM): 0.991
- relative viability ([4]; first compound 0.06325 µM): 1.11
- relative viability ([4]; first compound 0.2 µM): 1.11
- relative viability ([4]; first compound 0.6325 µM): 0.859
- relative viability ([4]; first compound 2 µM): 0.98

Cell Line: NCI-H2126
- relative viability ([1]; first compound 0.1 µM): 0.593
- relative viability ([1]; first compound 0.3162 µM): 0.517
- relative viability ([1]; first compound 1 µM): 0.59
- relative viability ([1]; first compound 3.162 µM): 0.589
- relative viability ([1]; first compound 10 µM): 0.546
- relative viability ([2]; first compound 2 µM): 0.773
- relative viability ([2]; first compound 6.325 µM): 0.379
- relative viability ([2]; first compound 20 µM): 0.167
- relative viability ([3]; first compound 2 µM): 0.58
- relative viability ([3]; first compound 6.325 µM): 0.361
- relative viability ([3]; first compound 20 µM): 0.354
- relative viability ([4]; first compound 0.02 µM): 0.743
- relative viability ([4]; first compound 0.06325 µM): 0.653
- relative viability ([4]; first compound 0.2 µM): 0.744
- relative viability ([4]; first compound 0.6325 µM): 0.779
- relative viability ([4]; first compound 2 µM): 0.803

Cell Line: NCI-H2170
- relative viability ([1]; first compound 0.1 µM): 0.462
- relative viability ([1]; first compound 0.3162 µM): 0.417
- relative viability ([1]; first compound 1 µM): 0.395
- relative viability ([1]; first compound 3.162 µM): 0.431
- relative viability ([1]; first compound 10 µM): 0.403
- relative viability ([2]; first compound 0.6325 µM): 0.601
- relative viability ([2]; first compound 2 µM): 0.498
- relative viability ([2]; first compound 6.325 µM): 0.168
- relative viability ([2]; first compound 20 µM): 0.188
- relative viability ([3]; first compound 0.6325 µM): 1.1
- relative viability ([3]; first compound 2 µM): 0.588
- relative viability ([3]; first compound 6.325 µM): 0.309
- relative viability ([3]; first compound 20 µM): 0.186
- relative viability ([4]; first compound 0.02 µM): 0.272
- relative viability ([4]; first compound 0.06325 µM): 0.263
- relative viability ([4]; first compound 0.2 µM): 0.254
- relative viability ([4]; first compound 0.6325 µM): 0.311
- relative viability ([4]; first compound 2 µM): 0.275

Reference: the supplement of paper PMC10307832
